Test results from ChEMBL document CHEMBL1201862, “PubChem BioAssay data set” (2004).
Activity calls are given as the source filed them.

How the values were obtained:
[1] = target: T1, Trace amine-associated receptor 1 (Homo sapiens, UniProt Q96RJ0); experiment: Fluorescence-based cell-based high throughput dose response assay to identify agonists of the human trace amine associated receptor 1 (TAAR1).; type: functional
T1 sequence (Q96RJ0 whole entry): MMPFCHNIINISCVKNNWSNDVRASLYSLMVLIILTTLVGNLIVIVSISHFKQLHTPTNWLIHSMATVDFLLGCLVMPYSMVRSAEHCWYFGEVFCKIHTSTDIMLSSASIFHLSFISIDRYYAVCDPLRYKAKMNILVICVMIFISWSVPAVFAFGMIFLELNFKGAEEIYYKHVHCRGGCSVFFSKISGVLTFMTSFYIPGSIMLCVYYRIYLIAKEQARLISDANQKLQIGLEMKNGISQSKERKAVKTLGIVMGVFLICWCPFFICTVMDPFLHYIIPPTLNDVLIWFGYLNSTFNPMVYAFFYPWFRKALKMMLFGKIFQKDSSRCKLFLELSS

cells [2] = type: functional, cell-based
cells [3] = type: functional, cell-based; remark: listed apart in the source
[4] = target: T1, Trace amine-associated receptor 1; experiment: Counterscreen for agonists of the human trace amine associated receptor 1 (hTAAR1): Fluorescence-based cell-based high throughput dose response assay to identify hTAAR1 agonist that also desensitize TAAR1 receptor response.; type: functional
[5] = target: T2, Oxysterols receptor LXR-beta (Homo sapiens, UniProt P55055); type: functional, cell-based;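 also: agonist activity at LXR measured by a cell-based luminescence readout across a dose range, run as a counterscreen for daf-12 agonists; HEK293 cells with Gal4-LXR fusion and GAL4-driven luciferase reporter; potency for activation of Gal4-LXR reporter so compounds are agonists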
T2 sequence (P55055 whole entry): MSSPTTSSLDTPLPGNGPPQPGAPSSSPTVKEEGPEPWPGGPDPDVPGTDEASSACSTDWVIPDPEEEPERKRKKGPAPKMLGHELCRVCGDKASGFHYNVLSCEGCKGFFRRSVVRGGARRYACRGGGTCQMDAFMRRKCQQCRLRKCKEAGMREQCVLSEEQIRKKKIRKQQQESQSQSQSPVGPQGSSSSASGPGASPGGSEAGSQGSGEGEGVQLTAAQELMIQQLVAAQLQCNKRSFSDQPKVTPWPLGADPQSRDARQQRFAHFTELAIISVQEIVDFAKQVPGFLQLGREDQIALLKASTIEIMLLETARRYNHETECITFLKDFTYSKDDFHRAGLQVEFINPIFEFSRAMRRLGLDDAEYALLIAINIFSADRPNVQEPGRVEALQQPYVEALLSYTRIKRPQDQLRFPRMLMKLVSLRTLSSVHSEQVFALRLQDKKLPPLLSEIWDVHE

[6] = target: Fructose-bisphosphate aldolase (Mycobacterium tuberculosis, UniProt P9WQA3); experiment: Fluorescence-based biochemical high throughput dose response assay for inhibitors of the fructose-bisphosphate aldolase (FBA) of M. tuberculosis.; type: functional
Sequence of Fructose-bisphosphate aldolase (P9WQA3 whole entry): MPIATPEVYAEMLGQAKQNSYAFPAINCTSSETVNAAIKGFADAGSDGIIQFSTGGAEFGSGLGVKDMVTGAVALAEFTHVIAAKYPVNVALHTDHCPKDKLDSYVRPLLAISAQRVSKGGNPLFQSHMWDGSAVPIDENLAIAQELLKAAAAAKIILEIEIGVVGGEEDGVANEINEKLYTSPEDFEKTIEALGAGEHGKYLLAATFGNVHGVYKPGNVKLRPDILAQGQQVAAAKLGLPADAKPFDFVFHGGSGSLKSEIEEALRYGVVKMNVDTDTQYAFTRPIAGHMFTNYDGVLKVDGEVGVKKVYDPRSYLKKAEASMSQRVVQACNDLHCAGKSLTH

Cytochrome P450 2C9 = Cytochrome P450 2C9 (Homo sapiens, UniProt P11712)
Sequence of Cytochrome P450 2C9 (P11712 whole entry): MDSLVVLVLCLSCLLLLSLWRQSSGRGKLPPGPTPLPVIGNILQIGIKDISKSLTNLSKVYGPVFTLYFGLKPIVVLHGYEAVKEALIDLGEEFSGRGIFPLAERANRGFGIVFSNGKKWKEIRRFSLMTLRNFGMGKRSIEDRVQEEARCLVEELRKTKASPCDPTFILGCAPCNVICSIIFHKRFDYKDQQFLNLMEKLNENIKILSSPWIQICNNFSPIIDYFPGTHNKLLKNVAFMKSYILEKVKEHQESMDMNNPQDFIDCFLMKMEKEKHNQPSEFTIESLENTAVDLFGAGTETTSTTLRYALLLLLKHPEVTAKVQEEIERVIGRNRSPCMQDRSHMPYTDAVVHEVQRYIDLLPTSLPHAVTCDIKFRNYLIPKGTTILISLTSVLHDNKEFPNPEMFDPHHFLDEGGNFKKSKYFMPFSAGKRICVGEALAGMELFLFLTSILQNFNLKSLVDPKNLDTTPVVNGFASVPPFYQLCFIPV

Cytochrome P450 2C19 = Cytochrome P450 2C19 (Homo sapiens, UniProt P33261); experiment: Cytochrome panel assay with activity outcomes. Panel member name: p450-cyp2c19 Compounds with AC50 equal or less than 10 uM are considered active; type: functional; details: read-out: AC50
Sequence of Cytochrome P450 2C19 (P33261 whole entry): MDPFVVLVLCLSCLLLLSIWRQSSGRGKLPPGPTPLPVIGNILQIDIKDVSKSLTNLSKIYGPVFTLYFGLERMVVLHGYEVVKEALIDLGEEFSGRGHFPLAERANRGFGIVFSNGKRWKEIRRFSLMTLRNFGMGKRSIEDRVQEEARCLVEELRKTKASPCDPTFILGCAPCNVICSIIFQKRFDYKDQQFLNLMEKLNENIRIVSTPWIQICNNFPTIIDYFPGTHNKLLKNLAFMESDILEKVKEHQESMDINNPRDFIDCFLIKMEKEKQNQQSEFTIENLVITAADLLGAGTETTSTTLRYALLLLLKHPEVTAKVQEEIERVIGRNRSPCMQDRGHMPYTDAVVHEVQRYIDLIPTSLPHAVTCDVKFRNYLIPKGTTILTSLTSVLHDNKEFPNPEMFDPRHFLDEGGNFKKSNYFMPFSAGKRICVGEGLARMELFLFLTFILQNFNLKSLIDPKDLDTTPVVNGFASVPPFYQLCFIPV

[7] = T. cruzi intracellular amastigote growth inhibition, dose response, imaging, CA-I/72 strain, bovine embryo skeletal muscle, dry powder (AID 651885); type: functional, cell-based
[8] = target: Endoplasmic reticulum aminopeptidase 1 (Homo sapiens, UniProt Q9NZ08); experiment: ERAP1 aminopeptidase inhibitors, dose response, biochemical, cherry-pick, set 2, plate reader (AID 743314)
Sequence of Endoplasmic reticulum aminopeptidase 1 (Q9NZ08 whole entry): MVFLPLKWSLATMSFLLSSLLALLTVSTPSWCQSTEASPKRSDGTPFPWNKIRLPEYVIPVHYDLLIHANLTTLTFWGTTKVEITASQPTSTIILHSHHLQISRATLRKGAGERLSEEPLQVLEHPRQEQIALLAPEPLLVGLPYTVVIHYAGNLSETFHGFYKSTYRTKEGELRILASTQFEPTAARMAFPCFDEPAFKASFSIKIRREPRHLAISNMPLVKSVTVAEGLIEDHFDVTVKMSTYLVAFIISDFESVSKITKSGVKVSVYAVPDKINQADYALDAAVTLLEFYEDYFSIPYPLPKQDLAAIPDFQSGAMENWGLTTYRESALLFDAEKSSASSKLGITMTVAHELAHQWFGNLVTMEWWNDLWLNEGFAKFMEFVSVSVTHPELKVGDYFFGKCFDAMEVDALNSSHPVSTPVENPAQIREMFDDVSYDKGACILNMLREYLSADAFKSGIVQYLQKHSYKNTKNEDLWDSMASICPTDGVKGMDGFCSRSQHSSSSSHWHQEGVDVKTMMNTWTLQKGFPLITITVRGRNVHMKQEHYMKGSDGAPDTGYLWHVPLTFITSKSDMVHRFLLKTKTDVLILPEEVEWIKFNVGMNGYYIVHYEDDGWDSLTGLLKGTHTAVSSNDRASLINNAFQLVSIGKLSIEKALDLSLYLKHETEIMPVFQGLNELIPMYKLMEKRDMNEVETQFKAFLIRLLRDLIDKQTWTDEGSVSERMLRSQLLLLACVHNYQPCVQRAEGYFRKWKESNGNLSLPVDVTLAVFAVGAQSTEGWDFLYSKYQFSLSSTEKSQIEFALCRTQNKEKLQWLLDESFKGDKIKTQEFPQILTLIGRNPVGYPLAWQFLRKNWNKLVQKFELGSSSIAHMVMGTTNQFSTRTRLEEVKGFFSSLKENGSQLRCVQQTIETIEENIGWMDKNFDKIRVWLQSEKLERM

[9] = target: T3, Latent membrane protein 1 (Human herpesvirus 4 (strain B95-8), UniProt P03230); experiment: TES1-eGFP NF-kB reporter inhibition versus Tet-On dsRED, dose response, selectivity assay for LMP1 NF-kB inhibitor project, imaging, HEK293T, dual-color eGFP/dsRED, cherry-picks (AID 588398); type: functional, cell-based
T3 sequence (P03230 whole entry): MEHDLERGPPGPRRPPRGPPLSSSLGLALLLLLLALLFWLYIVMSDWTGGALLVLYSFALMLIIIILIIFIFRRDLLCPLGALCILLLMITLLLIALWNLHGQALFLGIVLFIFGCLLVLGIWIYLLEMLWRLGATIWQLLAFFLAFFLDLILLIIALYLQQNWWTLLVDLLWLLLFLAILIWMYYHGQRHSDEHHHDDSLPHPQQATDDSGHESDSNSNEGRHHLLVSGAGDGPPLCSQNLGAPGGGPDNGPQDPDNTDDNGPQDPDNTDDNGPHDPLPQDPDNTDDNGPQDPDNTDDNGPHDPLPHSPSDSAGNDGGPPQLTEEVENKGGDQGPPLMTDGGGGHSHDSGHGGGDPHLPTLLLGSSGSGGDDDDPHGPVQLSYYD

HEK293 = experiment: inhibitors of LMP1-driven NF-kB reporter, dose response, cell-based, HEK293, luciferase, cherry-pick (AID 588343); type: functional; details: Homo sapiens
[10] = IGROV1 ovarian cancer cell cytotoxicity, dose response, PAX8 inhibitor project, plate reader, dry powder samples (AID 743043); type: functional, cell-based; details: IGROV-1
[11] = NIH:OVCAR-3 ovarian cancer cell cytotoxicity, dose response, PAX8 inhibitor project, plate reader, dry powder samples (AID 743044); type: functional, cell-based
[12] = A2780 ovarian cancer cell cytotoxicity, dose response, cytotoxicity control, plate reader, dry powder samples (AID 743046); type: functional, cell-based
[13] = cytotoxicity in OVCAR8 ovarian cancer cells, dose response, PAX8 project, cell-based, plate reader, dry powder samples (AID 743197); type: functional; details: OVCAR-8
Paired box protein Pax-8 = Paired box protein Pax-8 (Homo sapiens, UniProt Q06710); experiment: inhibitors of PAX8-driven TPO luciferase reporter, dose response, RMG-I cells, cherry-pick (AID 687027); type: functional, cell-based;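 also: luciferase reporter driven by Pax8 target thyroperoxidase promoter measured by SteadyGlo luminescence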
Sequence of Paired box protein Pax-8 (Q06710 whole entry): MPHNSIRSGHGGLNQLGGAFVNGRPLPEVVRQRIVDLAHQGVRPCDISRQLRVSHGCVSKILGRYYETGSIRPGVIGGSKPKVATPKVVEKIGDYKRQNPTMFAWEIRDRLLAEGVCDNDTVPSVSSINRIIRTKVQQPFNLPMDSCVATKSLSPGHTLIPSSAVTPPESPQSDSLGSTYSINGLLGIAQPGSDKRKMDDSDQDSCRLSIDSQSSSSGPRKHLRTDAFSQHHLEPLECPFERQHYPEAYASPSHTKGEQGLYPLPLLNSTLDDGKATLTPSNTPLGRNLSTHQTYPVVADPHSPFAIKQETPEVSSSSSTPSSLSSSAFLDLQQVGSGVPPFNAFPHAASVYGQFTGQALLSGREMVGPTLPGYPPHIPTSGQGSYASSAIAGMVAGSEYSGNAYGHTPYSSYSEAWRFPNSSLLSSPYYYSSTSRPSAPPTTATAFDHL

[14] = HEK293T cytotoxicity, dose response, cytotoxicity control for miR-122 modulator project, cell-based, activator set, cherry-pick (AID 720690); type: functional;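 also: HEK293T human cells scored for general mammalian cytotoxicity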
[15] = NIH/3T3 fibroblast cytotoxicity, dose response, cytotoxicity control for T. cruzi growth inhibitor project, cell-based, cherry-pick samples, set 2 (AID 651817); type: functional; details: NIH3T3

Cc1cc(C(=O)COC(=O)C2=NNC(=O)CC2)c(C)n1CCc1ccccc1
EC50 [1]: 1.58 µM (active)
IC50 (cells [2]): > 29.9 µM (inactive)
EC50 (cells [3]): > 29.9 µM (inactive)
IC50 [4]: 7.2 µM (active)

C/C(=N\NC(=O)OC(C)(C)C)c1ccc[nH]1
EC50 [5]: > 67.6 µM (inactive)

CCOC(=O)c1[nH]c2cc3c(cc2c1NC(=O)CN1CCc2ccccc2C1)OCO3
IC50 [6]: 0.485 µM (active)
AC50 (Cytochrome P450 2C9): 7.94 µM (inconclusive)
AC50 (Cytochrome P450 2C19): 2.24 µM (inconclusive)

CC(C)N1C[C@H](C)[C@@H](CN(C)Cc2ccccc2Cl)Oc2c(NC(=O)c3ccncc3)cccc2C1=O
IC50 [7]: 0.0201 µM (active)

O=C(NCCc1ccncc1)[C@@H]1N[C@@H]2c3ccc(/C=C/c4ccccc4)c(=O)n3C[C@@H]2[C@H]1CO
AC50 [8]: 13 µM (active)

CCc1cc(=O)oc2c(CNCc3c(F)cccc3Cl)c(O)ccc12
AC50 [9]: 54.9 µM (active)
AC50 [8]: 8.53 µM (active)
AC50 (HEK293): 230 µM (active)

COCCNC(=O)/C(C#N)=C/c1cc(C)n(-c2ccc(C)cc2)c1C
EC50 [5]: > 67.5 µM (inactive)

C[C@@H]1CN([C@@H](C)CO)S(=O)(=O)c2ccc(C#Cc3ccccc3F)cc2O[C@H]1CN(C)C(=O)c1ccc2c(c1)OCO2
AC50 [10]: 28.5 µM (active)
AC50 [11]: 6.2 µM (active)
AC50 [12]: 0.765 µM (active)
AC50 [13]: 17.7 µM (active)
AC50 (Paired box protein Pax-8): 4.88 µM (active)
AC50 [14]: 5.74 µM (active)

CN1C(=O)c2cc(NC(=O)c3ccc(C(F)(F)F)cc3)ccc2OC[C@@H]2O[C@@H](CC(=O)NCc3ccc4c(c3)OCO4)CC[C@H]21
AC50 [14]: 20.3 µM (active)

Cc1ccc(S(=O)(=O)Nc2ccc3c(c2)CC(=O)N([C@@H](C)CO)C[C@@H](C)[C@H](CN(C)Cc2ccccc2)O3)cc1
AC50 [15]: 39 µM (inactive)

O=C(N[C@@H](Cc1cccnc1)C(=O)N1CCC[C@H]1C(=O)NCCc1ccccc1Cl)c1ccc(Cl)c(Cl)c1
EC50 [1]: 2.9 µM (active)
IC50 (cells [2]): > 29.9 µM (inactive)
EC50 (cells [3]): > 29.9 µM (inactive)
IC50 [4]: 2.6 µM (active)
